Source: patent US20250368678A1, “19-NOR-C3,3-DISUBSTITUTED C21-AZACYCLO-S[…] AND METHOD FOR USING SAME” (SHANDONG LUYE PHARMACEUTICAL CO., LTD., priority 2022, published 2025)

What was measured:
[1] = target: T1, α1β2γ2 GABA receptors (α1β2γ2-CHO-TRex stable cell strain) (Homo sapiens, UniProt P14867+P47870); experiment: Whole-cell patch clamp, intrasynaptic functional activity (positive allosteric regulation of GABA-induced current); format: cell-based; settings: patch clamp -60 mV, GABA at EC10-20, α1β2γ2-CHO-TRex cells
T1 construct: expressed in transfected cells
T1 sequence (P14867 28-456): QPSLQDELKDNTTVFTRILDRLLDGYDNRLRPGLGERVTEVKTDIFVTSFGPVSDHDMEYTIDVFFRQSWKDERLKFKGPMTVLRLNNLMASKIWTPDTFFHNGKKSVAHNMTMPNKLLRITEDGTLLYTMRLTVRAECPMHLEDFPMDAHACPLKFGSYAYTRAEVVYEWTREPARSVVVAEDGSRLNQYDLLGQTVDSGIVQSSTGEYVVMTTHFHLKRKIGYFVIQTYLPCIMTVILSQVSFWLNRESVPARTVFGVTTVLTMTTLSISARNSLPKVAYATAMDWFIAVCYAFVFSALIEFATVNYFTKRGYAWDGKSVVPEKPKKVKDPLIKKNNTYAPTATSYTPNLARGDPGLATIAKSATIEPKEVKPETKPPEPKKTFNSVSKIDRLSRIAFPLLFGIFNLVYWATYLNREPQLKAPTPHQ
T1 sequence (P47870 25-512 limits assumed): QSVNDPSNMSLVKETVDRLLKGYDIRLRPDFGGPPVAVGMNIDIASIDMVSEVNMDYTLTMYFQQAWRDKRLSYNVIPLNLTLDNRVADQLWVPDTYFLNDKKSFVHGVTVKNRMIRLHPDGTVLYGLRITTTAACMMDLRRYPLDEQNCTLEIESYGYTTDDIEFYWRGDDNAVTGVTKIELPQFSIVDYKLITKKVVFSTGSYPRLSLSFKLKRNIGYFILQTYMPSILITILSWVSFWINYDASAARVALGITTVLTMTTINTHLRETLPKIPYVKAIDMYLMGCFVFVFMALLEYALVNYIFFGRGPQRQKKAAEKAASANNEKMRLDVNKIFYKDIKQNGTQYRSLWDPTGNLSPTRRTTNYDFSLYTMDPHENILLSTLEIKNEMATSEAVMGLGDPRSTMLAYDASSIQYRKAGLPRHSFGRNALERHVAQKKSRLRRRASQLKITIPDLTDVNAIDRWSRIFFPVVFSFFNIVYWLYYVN
T1 sequence (P18507 40-475 partner): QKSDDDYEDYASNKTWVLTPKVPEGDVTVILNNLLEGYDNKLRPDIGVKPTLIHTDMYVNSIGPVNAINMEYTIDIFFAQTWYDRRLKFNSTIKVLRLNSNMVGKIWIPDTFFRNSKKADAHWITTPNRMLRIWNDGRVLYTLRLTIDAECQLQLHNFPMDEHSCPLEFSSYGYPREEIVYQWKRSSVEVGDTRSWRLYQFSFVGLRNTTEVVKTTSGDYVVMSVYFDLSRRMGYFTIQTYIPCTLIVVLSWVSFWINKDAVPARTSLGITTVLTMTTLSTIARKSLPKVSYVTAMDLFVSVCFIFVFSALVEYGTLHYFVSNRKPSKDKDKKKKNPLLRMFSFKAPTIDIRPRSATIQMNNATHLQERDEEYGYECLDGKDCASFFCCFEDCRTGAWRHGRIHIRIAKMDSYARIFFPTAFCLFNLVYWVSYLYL
Description: (§1) The α4β3δ-HEK-FlpIn-TRex stable cell strain was cultured in DMEM+10% FBS complete culture medium, with the selective antibiotics being 10 μg/mL Blasticidin, 100 µg/mL Zeocin, 100 µg/mL Hygromycin, and 0.2 μg/mL Puromycin. The α1β2γ2-CHO-TRex stable cell strain was cultured in DMEM/F12+10% FBS complete culture medium, with the selective antibiotics being 10 μg/mL Blasticidin, 100 μg/mL Zeocin, 300 μg/mL Hygromycin, and […] Puromycin.
(§2) The day before the patch clamp experiment, cells were seeded onto 12 mm polylysine-coated coverslips and then cultured in 35 mm culture dishes, and tetracycline ([…]) was added to induce the expression of GABA receptors. The extracellular fluid had the following composition (in mM): 140 NaCl, 3 KCl, 1.5 MgCl2, 2 CaCl2, 10 HEPES, and 10 Glucose. After thorough mixing, NaOH was added to adjust the pH to 7.4, and sucrose was added to adjust the osmotic pressure to 300-320 mOsm. The fluid was stored at 4° C. The electrode internal solution had the following composition (in mM): 145 KCl, 1 MgCl2, 5 EGTA, 10 HEPES, and 5 MgATP. After thorough mixing, KOH was added to adjust the pH to 7.3, and sucrose was added to adjust the osmotic pressure to 290-300 mOsm. The solution was filtered through a […] before use.
(§3) Whole-cell patch clamp recording was mainly employed in this experiment. The membrane potential was clamped at −60 mV, and receptors were activated using GABA at an EC10-20 concentration ([…]). The test compounds were dissolved in 0.1% DMSO, and perfusion was performed for 30 s prior to GABA stimulation. Finally, the positive allosteric regulating effects of the test compounds on α1β2γ2 or α4β3δ were determined.
(§4) The experimental result for each concentration was expressed as a fold increase in the GABA-induced current caused by the compound. […] At least 5 concentrations are tested to obtain a complete EC50 curve and EC50 values. All experiments were repeated on no less than 3 cells, and data processing was completed using GraphPad prism software. The dose-response curves were fitted using the Hill equation, and the half-maximal activating concentration EC50 and Emax were finally obtained.

[2] = In vitro liver microsomal stability assay, human; format: in vitro ADME; settings: for CLint scaled at 1 µM / half-life at 1 µM / microsomal CLint at 1 µM / T1/2: Human liver microsomes; for Remaining amount % at 60 min: Human liver microsomes 0.5 mg/mL, NADPH; for microsomal CLint at 1 µM: read-out: CLint(mic)
Description: (§5) 1) Preparation of working solutions of test samples: The test samples were diluted with acetonitrile to 100 M.
(§6) 2) Preparation of a working solution of liver microsomes: liver microsomes were diluted with 100 mM phosphate-buffered saline to 0.56 mg/mL.
(§7) 3) Preparation of a working solution of reduced nicotinamide adenine dinucleotide (NADPH): A proper amount of NADPH was weighed out and diluted with phosphate-buffered saline to 20 mM, and an equal volume of a 60 mM MgCl2 solution was added.
(§8) 4) Preparation of a stop solution: Tolbutamide was diluted with acetonitrile to 20 ng/mL, serving as a stop solution containing an internal standard.
(§9) 1) Incubation anti-adsorption EP tubes were prepared and labeled with species, test/control sample, time points (0, 5, 10, 20, 30, 60 min, Blank60, and NCF60), etc.
(§10) 2) 2 L of test or control sample working solution, diluted with acetonitrile to 100 M, and 178 L of liver microsome working solution were added to each tube. For the Blank60 tube, 2 L of acetonitrile was added instead of a test sample. The tubes were pre-incubated in a 37° C. water bath for about 10 min, with each sample tested in triplicate.
(§11) 3) After the pre-incubation was complete, 20 L of NADPH working solution was added to each tube except for the 0 min and NCF60 tubes to start reactions, and 20 L of phosphate-buffered saline (containing 30 mM MgCl2) was added to the NCF60 tube. In the incubation system, the final concentrations of the test and control samples were 1 M, the final concentration of liver microsomes was 0.5 mg/mL, the final concentration of NADPH was 1 mM, and the final concentration of MgCl2 was 3 mM.
(§12) 4) For the 0 min sample, 600 L of stop solution was added before adding the NADPH working solution. After each sample was incubated for its respective time, 600 L of stop solution was added to stop the reaction.
(§13) 5) After the reaction was stopped, each sample was vortexed for 30 s and then centrifuged at 13,500 rpm for 10 min. 100 L of the supernatant was transferred to an EP tube, and 100 L Milli-Q water was added. The mixture was well mixed by vortexing and analyzed by LC-MS/MS.
(§14) 6) Testosterone and dextromethorphan were used as positive control samples under the same conditions to assess the stability and reliability of the system.
(§15) Parameters of the test samples, including their half-lives, intrinsic clearance rates in liver microsomes, and hepatic intrinsic clearance rates, were calculated based on the percentage of test sample remaining.

[3] = target: T2, α4β3δ GABA receptors (α4β3δ-HEK-FlpIn-TRex stable cell strain) (Homo sapiens, UniProt P28472+P48169); experiment: Whole-cell patch clamp, extrasynaptic functional activity (positive allosteric regulation of GABA-induced current); format: cell-based; settings: patch clamp -60 mV, GABA at EC10-20, α4β3δ-HEK-FlpIn-TRex cells
T2 construct: expressed in transfected cells
T2 sequence (P48169 36-554): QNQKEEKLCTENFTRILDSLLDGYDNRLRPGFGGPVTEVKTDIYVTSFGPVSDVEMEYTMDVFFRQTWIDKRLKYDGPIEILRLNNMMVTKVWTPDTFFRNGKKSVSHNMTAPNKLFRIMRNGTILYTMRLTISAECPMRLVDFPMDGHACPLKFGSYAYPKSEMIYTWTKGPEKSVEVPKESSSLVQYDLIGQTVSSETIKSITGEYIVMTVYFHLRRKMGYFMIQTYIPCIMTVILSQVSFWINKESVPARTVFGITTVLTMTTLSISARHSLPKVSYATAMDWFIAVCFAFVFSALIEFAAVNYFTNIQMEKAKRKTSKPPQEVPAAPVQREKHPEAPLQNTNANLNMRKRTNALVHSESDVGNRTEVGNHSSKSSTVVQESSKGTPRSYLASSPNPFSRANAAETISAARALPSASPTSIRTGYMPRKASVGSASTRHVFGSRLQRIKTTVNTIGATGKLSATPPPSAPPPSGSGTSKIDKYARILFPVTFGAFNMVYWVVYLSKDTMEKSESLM
T2 sequence (P28472 26-473): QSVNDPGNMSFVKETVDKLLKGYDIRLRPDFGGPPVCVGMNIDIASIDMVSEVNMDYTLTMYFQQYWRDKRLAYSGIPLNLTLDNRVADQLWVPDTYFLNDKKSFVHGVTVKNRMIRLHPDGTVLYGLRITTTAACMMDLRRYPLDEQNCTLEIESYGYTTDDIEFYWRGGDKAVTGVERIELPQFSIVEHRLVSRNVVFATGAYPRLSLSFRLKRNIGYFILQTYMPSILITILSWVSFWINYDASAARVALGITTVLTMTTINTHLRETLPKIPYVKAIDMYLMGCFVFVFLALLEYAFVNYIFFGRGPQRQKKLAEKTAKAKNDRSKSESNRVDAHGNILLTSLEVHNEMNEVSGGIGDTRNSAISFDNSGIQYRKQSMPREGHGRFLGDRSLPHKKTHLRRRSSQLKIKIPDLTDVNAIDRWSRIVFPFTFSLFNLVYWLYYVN
T2 sequence (O14764 25-452 partner): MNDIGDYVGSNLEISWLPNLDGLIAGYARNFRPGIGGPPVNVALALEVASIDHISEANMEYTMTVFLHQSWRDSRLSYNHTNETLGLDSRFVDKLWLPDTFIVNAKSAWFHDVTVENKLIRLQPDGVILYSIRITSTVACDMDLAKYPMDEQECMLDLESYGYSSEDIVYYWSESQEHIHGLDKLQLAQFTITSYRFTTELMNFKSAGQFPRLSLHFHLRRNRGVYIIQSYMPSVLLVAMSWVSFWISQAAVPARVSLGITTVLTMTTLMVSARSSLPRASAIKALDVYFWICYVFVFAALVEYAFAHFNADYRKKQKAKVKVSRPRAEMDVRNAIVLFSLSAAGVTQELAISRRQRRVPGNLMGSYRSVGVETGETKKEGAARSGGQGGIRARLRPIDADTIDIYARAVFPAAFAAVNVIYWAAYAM
Description: as §1, §2, §3, §4

[4] = In vitro liver microsomal stability assay, rat; format: in vitro ADME; settings: for Remaining amount % at 60 min: Rat liver microsomes 0.5 mg/mL, NADPH; for microsomal CLint at 1 µM: read-out: CLint(mic)
Description: as §5, §6, §7, §8, §9, §10, §11, §12, §13, §14, §15

`C[C@@]1(O)CC[C@H]2[C@H](CC[C@@H]3[C@@H]2CC[C@]2(C)[C@@H](C(=O)Cn4cnn(-c5ccnc(OC(F)(F)F)c5)c4=O)CC[C@@H]32)C1` [Compound 38] gave an EC50 [1] of 55 nM, an Emax [1] of 700% and a CLint scaled at 1 µM [2] of under 6.75 mL/min/kg. The half-life at 1 µM [2] was over 3.1 h, the “Remaining amount % at 60 min” value [2] was 97.3% and the microsomal CLint at 1 µM [2] was under 7.5 µL/min/mg. It also gave an EC50 [3] of 115 nM, an Emax [3] of 625% and a CLint scaled at 1 µM ([4]; Rat liver microsomes) of 12 mL/min/kg. For the same compound, the half-life at 1 µM ([4]; Rat liver microsomes) was 3.5 h, the “Remaining amount % at 60 min” value [4] was 82.9% and the microsomal CLint at 1 µM ([4]; Rat liver microsomes) was 7 µL/min/mg.
`C[C@@]1(O)CC[C@H]2[C@H](CC[C@@H]3[C@@H]2CC[C@]2(C)[C@@H](C(=O)Cn4cnn(-c5ccnc(OCC(F)(F)F)c5)c4=O)CC[C@@H]32)C1` [Compound 39] showed an Emax [1] of 675%, a CLint scaled at 1 µM [2] of 8 mL/min/kg and a T1/2 [2] of 2.57 h. For the same compound, the “Remaining amount % at 60 min” value [2] was 76.2%, the microsomal CLint at 1 µM [2] was 9 µL/min/mg and the Emax [3] was 967%. For the same compound, the CLint scaled at 1 µM ([4]; Rat liver microsomes) was under 13.5 mL/min/kg, the half-life at 1 µM ([4]; Rat liver microsomes) was over 3.1 h and the “Remaining amount % at 60 min” value [4] was 90.6%. For the same compound, the microsomal CLint at 1 µM ([4]; Rat liver microsomes) was under 7.5 µL/min/mg.
Compound `C[C@@]1(O)CC[C@H]2[C@H](CC[C@@H]3[C@@H]2CC[C@]2(C)[C@@H](C(=O)Cn4cnn(CCOC(F)(F)F)c4=O)CC[C@@H]32)C1` [Compound 43] has an Emax [1] of 576%, a CLint scaled at 1 µM [2] of 41 mL/min/kg and a T1/2 [2] of 0.512 h. The “Remaining amount % at 60 min” value [2] was 25.97%, the microsomal CLint at 1 µM [2] was 45 µL/min/mg and the Emax [3] was 889%. For the same compound, the CLint scaled at 1 µM ([4]; Rat liver microsomes) was 108 mL/min/kg, the T1/2 ([4]; Rat liver microsomes) was 0.383 h and the “Remaining amount % at 60 min” value [4] was 15.74%. It also gave a microsomal CLint at 1 µM ([4]; Rat liver microsomes) of 60 µL/min/mg.
In the case of `C[C@@]1(O)CC[C@H]2[C@H](CC[C@@H]3[C@@H]2CC[C@]2(C)[C@@H](C(=O)Cn4cnn(-c5cc(F)cc(C#N)c5)c4=O)CC[C@@H]32)C1` [Compound 44], the Emax [1] is reported as 518%, the CLint scaled at 1 µM [2] is reported as 12 mL/min/kg and the half-life at 1 µM [2] is reported as 1.7 h. The “Remaining amount % at 60 min” value [2] was 66.67%, the microsomal CLint at 1 µM [2] was 14 µL/min/mg and the Emax [3] was 546%. The CLint scaled at 1 µM ([4]; Rat liver microsomes) was 27 mL/min/kg, the half-life at 1 µM ([4]; Rat liver microsomes) was 1.56 h and the “Remaining amount % at 60 min” value [4] was 64.82%. The microsomal CLint at 1 µM ([4]; Rat liver microsomes) was 15 µL/min/mg.
For `CC(C)(C)n1ncn(CC(=O)[C@H]2CC[C@H]3[C@@H]4CC[C@@H]5C[C@](C)(O)CC[C@@H]5[C@H]4CC[C@]23C)c1=O` [Compound 45], the EC50 [1] was 121 nM, the Emax [1] was 806% and the CLint scaled at 1 µM [2] was 22 mL/min/kg. For the same compound, the half-life at 1 µM [2] was 0.938 h, the “Remaining amount % at 60 min” value [2] was 48.81% and the microsomal CLint at 1 µM [2] was 25 µL/min/mg. It also gave an EC50 [3] of 113 nM, an Emax [3] of 749% and a CLint scaled at 1 µM ([4]; Rat liver microsomes) of 281 mL/min/kg. The half-life at 1 µM ([4]; Rat liver microsomes) was 0.148 h, the “Remaining amount % at 60 min” value [4] was 7.24% and the microsomal CLint at 1 µM ([4]; Rat liver microsomes) was 156 µL/min/mg.
